# Assay results published in the supplement of paper PMC10307832.
# Tests used:
# Test in all cases: relative viability (nuclei count vs DMSO), 5 days (fraction); higher = more cells survive
# 4EGI-1 + Phenformin = compound: O=C(O)C(Cc1ccccc1[N+](=O)[O-])=NNc1nc(-c2ccc(Cl)c(Cl)c2)cs1 (mixture of isomers) [4EGI-1] + N=C(N)NC(=N)NCCc1ccccc1 [Phenformin] (partner 250 µM)
# Outline: (§1)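 Relative viability was taken as the ratio of nuclei in treated wells to nuclei in vehicle wells. Lung cancer cell lines in 1536-well plates received compounds by pin tool one day after seeding, either one drug alone or a fixed anchor-drug dose plus five library-drug doses (not always all listed) in √10 steps. Nuclei were counted on 4× images after 5 days of treatment, and values are medians of duplicate plates.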
# XMD8-85 + Pemetrexed = compound: CN1CCN(CC1)C2=CC(=C(C=C2)NC3=NC=C4C(=N3)N(C5=CC=CC=C5C(=O)N4C)C)OC [XMD8-85] + Nc1nc2[nH]cc(CCc3ccc(C(=O)N[C@@H](CCC(=O)O)C(=O)O)cc3)c2c(=O)[nH]1 [Pemetrexed] (partner 0.2 µM)
# Outline: as §1
# XMD8-85 + AZD7762 = compound: CN1CCN(CC1)C2=CC(=C(C=C2)NC3=NC=C4C(=N3)N(C5=CC=CC=C5C(=O)N4C)C)OC [XMD8-85] + NC(=O)Nc1cc(-c2cccc(F)c2)sc1C(=O)N[C@H]1CCCNC1 [AZD7762] (partner 0.2 µM)
# Outline: as §1
# XMD8-85 + Tozasertib = compound: CN1CCN(CC1)C2=CC(=C(C=C2)NC3=NC=C4C(=N3)N(C5=CC=CC=C5C(=O)N4C)C)OC [XMD8-85] + Cc1cc(Nc2cc(N3CCN(C)CC3)nc(Sc3ccc(NC(=O)C4CC4)cc3)n2)n[nH]1 [Tozasertib] (partner 0.1 µM)
# Outline: as §1
Cell Line,relative viability (4EGI-1 + Phenformin; first compound 0.5 µM),relative viability (4EGI-1 + Phenformin; first compound 1.581 µM),relative viability (4EGI-1 + Phenformin; first compound 5 µM),relative viability (4EGI-1 + Phenformin; first compound 15.81 µM),relative viability (4EGI-1 + Phenformin; first compound 50 µM),relative viability (XMD8-85 + Pemetrexed; first compound 0.08 µM),relative viability (XMD8-85 + Pemetrexed; first compound 0.253 µM),relative viability (XMD8-85 + Pemetrexed; first compound 0.8 µM),relative viability (XMD8-85 + Pemetrexed; first compound 2.53 µM),relative viability (XMD8-85 + Pemetrexed; first compound 8 µM),relative viability (XMD8-85 + AZD7762; first compound 0.08 µM),relative viability (XMD8-85 + AZD7762; first compound 0.253 µM),relative viability (XMD8-85 + AZD7762; first compound 0.8 µM),relative viability (XMD8-85 + AZD7762; first compound 2.53 µM),relative viability (XMD8-85 + AZD7762; first compound 8 µM),relative viability (XMD8-85 + Tozasertib; first compound 0.08 µM),relative viability (XMD8-85 + Tozasertib; first compound 0.253 µM),relative viability (XMD8-85 + Tozasertib; first compound 0.8 µM),relative viability (XMD8-85 + Tozasertib; first compound 2.53 µM),relative viability (XMD8-85 + Tozasertib; first compound 8 µM)
LXF-289,0.535,0.514,0.513,0.485,0.291,0.856,0.88,0.878,0.949,0.899,1.09,1.16,1.16,1.12,0.995,0.194,0.216,0.171,0.142,0.166
NCI-H1944,0.206,,0.207,0.185,0.191,0.517,0.72,0.638,0.615,0.639,0.585,0.585,0.475,0.543,0.462,0.27,0.277,0.264,0.256,0.21
CAL-12T,0.578,0.465,0.609,0.527,0.179,0.956,1.15,,0.862,0.681,0.545,0.642,0.604,,0.466,0.287,0.348,0.296,0.259,0.214
NCI-H23,0.884,,0.763,0.826,0.706,0.546,0.677,0.607,,0.4,0.173,0.287,0.23,0.18,0.2,0.492,0.369,0.34,0.272,0.209
LK-2,0.464,,0.639,0.437,0.0912,0.322,0.289,0.282,0.212,0.173,0.288,0.334,0.322,0.254,0.284,,0.156,0.188,0.158,0.181
NCI-H358,0.311,0.297,0.343,0.215,0.111,0.165,0.176,0.175,0.164,0.183,0.446,0.497,0.667,0.639,0.399,0.106,0.0979,0.119,0.11,0.0877
NCI-H647,0.562,,0.819,0.419,0.141,0.172,0.16,0.18,0.151,0.116,0.306,0.371,0.586,0.503,0.198,0.173,0.195,0.29,0.202,0.0891
A-427,0.331,0.316,0.326,0.274,0.156,1.09,1.02,1.08,1.1,0.754,,0.81,0.675,0.63,0.478,0.193,0.225,0.203,0.185,0.186
NCI-H1734,0.477,0.341,0.43,0.352,0.256,,0.405,0.419,0.354,0.366,0.562,0.534,0.529,0.626,,0.252,0.248,0.291,0.257,0.237
PC-3 [JPC-3],0.484,0.486,0.476,,0.431,1.21,0.928,1.1,1.27,0.452,,0.782,0.82,0.712,0.411,0.723,0.848,0.974,1,0.625
LCLC-97TM1,0.456,0.343,0.437,0.404,0.375,0.153,0.17,0.211,0.181,0.189,0.207,0.171,0.304,0.286,0.293,0.278,0.23,0.225,0.225,0.168
ChaGo-K-1,0.447,0.439,0.543,0.49,0.351,0.276,0.268,0.26,0.248,0.232,0.825,0.883,0.855,0.903,0.91,0.225,0.233,0.207,0.196,0.144
HCC-366,0.676,0.569,0.741,0.631,0.443,0.147,0.163,0.146,0.129,0.168,0.216,0.311,0.335,0.336,0.259,0.138,0.128,0.0974,0.0608,0.0744
NCI-H1395,0.455,0.362,0.508,0.399,0.34,0.768,0.744,0.854,0.976,0.594,0.382,0.393,0.395,0.418,0.35,0.768,0.786,0.716,0.693,0.571
LOU-NH91,0.742,,0.703,0.456,0.534,0.281,0.333,0.311,0.295,0.378,0.678,0.763,0.806,0.835,0.59,0.644,0.631,0.636,0.669,0.419
NCI-H441,1.04,0.76,0.919,0.785,0.183,0.263,0.261,0.247,0.279,0.256,1.21,1.01,1.12,1.11,0.562,0.758,0.601,0.657,0.768,0.408
NCI-H2405,0.419,0.338,0.421,0.409,0.409,1.12,1.05,1.04,1.01,0.602,0.636,0.741,0.73,0.708,0.467,0.705,0.749,0.742,0.694,0.485

Cell Line,relative viability (4EGI-1 + Phenformin; first compound 0.5 µM),relative viability (4EGI-1 + Phenformin; first compound 1.581 µM),relative viability (4EGI-1 + Phenformin; first compound 5 µM),relative viability (4EGI-1 + Phenformin; first compound 15.81 µM),relative viability (4EGI-1 + Phenformin; first compound 50 µM),relative viability (XMD8-85 + Pemetrexed; first compound 0.08 µM),relative viability (XMD8-85 + Pemetrexed; first compound 0.253 µM),relative viability (XMD8-85 + Pemetrexed; first compound 0.8 µM),relative viability (XMD8-85 + Pemetrexed; first compound 2.53 µM),relative viability (XMD8-85 + Pemetrexed; first compound 8 µM),relative viability (XMD8-85 + AZD7762; first compound 0.08 µM),relative viability (XMD8-85 + AZD7762; first compound 0.253 µM),relative viability (XMD8-85 + AZD7762; first compound 0.8 µM),relative viability (XMD8-85 + AZD7762; first compound 2.53 µM),relative viability (XMD8-85 + AZD7762; first compound 8 µM),relative viability (XMD8-85 + Tozasertib; first compound 0.08 µM),relative viability (XMD8-85 + Tozasertib; first compound 0.253 µM),relative viability (XMD8-85 + Tozasertib; first compound 0.8 µM),relative viability (XMD8-85 + Tozasertib; first compound 2.53 µM),relative viability (XMD8-85 + Tozasertib; first compound 8 µM)
NCI-H838,0.605,,0.623,0.487,0.153,0.243,0.247,0.249,0.208,0.184,0.972,0.987,0.915,0.856,0.868,0.291,0.305,0.267,0.25,0.165
HCC-15,0.494,,0.473,0.47,0.161,0.202,0.216,0.212,0.207,0.187,1.16,1.06,1.13,1.12,1.02,0.394,0.294,0.398,0.167,0.143
EPLC-272H,0.348,,0.302,0.273,0.158,0.279,0.318,0.314,0.223,0.36,0.209,0.16,0.362,0.229,0.273,0.294,0.241,0.557,0.281,0.25
NCI-H1755,0.699,0.636,0.646,0.625,0.397,0.405,0.441,0.444,0.427,0.444,0.542,0.663,0.382,0.519,0.512,0.627,0.571,0.589,0.584,0.436
EMC-BAC-2,0.664,0.524,0.612,0.608,0.385,0.391,0.423,0.45,0.411,0.376,1.16,1.03,1.04,1.1,0.789,0.293,0.275,0.285,0.239,0.224
201T,0.456,0.475,0.427,0.45,0.428,0.329,0.329,0.368,0.325,0.288,0.566,0.651,0.669,0.698,0.575,0.964,0.975,,0.808,0.771
HARA,0.593,0.506,0.497,0.41,0.376,0.26,0.227,0.307,0.295,0.229,0.314,0.269,0.303,0.283,0.273,0.103,0.42,0.104,0.101,0.0877
LC-2-ad,0.601,,0.649,0.342,0.265,0.261,0.26,0.253,0.274,0.249,0.808,0.837,0.895,0.779,0.596,0.411,0.429,0.47,0.33,0.34
NCI-H2087,0.498,0.468,0.435,0.394,0.193,0.654,0.697,0.692,0.731,0.659,1.42,1.25,1.39,1.23,0.96,0.265,0.223,0.238,0.245,0.177
EKVX,0.223,0.213,0.234,0.189,0.215,0.276,0.347,0.382,,0.381,0.685,0.742,0.67,0.729,0.646,0.404,0.34,0.41,0.427,0.276
NCI-H650,0.455,,0.451,0.47,0.31,0.944,0.921,1.04,0.852,0.717,0.92,0.991,1,0.829,0.781,0.738,0.713,0.68,0.608,0.338
NCI-H1355,0.469,0.439,0.45,0.413,0.33,1.04,1.02,1.03,1.07,0.976,0.678,0.697,0.798,0.817,,0.473,0.467,0.525,0.376,0.314
HOP-62,0.677,0.446,0.73,0.667,0.537,0.307,0.358,0.349,0.251,0.247,0.497,0.708,0.523,,0.421,0.371,0.342,0.403,0.301,0.177
BEN,0.278,0.267,0.281,0.241,0.269,0.811,0.771,0.696,0.735,0.474,0.831,0.661,0.691,0.653,0.463,0.467,,0.426,0.331,0.457
NCI-H1651,0.345,0.295,0.35,0.267,0.231,0.506,0.617,0.602,0.748,0.445,0.46,0.431,0.47,,0.433,0.717,0.818,0.68,0.436,0.307
NCI-H1666,0.537,0.554,0.563,0.51,0.398,0.862,0.811,0.83,0.82,0.673,0.836,0.87,,1.01,0.694,0.579,0.641,0.637,0.601,0.464
